pIC50: −log10 of the molar value.

Experiment [1] concerns the target T1, recombinant human ACC2 (rhACC2) (Homo sapiens, UniProt O00763, V2141I).
T1 construct: a full length Cytomax clone of ACC2 was purchased from Cambridge Bioscience Limited; made in house; host or cells: CHO cells (tetracycline-inducible, pcDNA5 FRT TO-TOPO)
The experiment is described as follows: recombinant hACC2 Transcreener assay (ADP detection FP). It counts as biochemical. The conditions noted are these: 50 μM ATP, minimum of n=3. The procedure:
For example direct inhibition of ACC activity, for the compound of Formula (1) was determined using preparations of recombinant human ACC1 (rhACC1) and recombinant human ACC2 (rhACC2). Representative sequences of the recombinant human ACC1 and ACC2 that can be used in the assay are provided in FIG. 1 (SEQ ID NO. 1) and FIG. 2 (SEQ. ID NO. 2), respectively.
[3] Preparation of rhACC2. Human ACC2 inhibition was measured using purified recombinant human ACC2 (hrACC2). Briefly, a full length Cytomax clone of ACC2 was purchased from Cambridge Bioscience Limited and was sequenced and subcloned into PCDNA5 FRT TO-TOPO (Invitrogen, Carlsbad, Calif.). The ACC2 was expressed in CHO cells by tetracycline induction and harvested in 5 liters of DMEM/F12 with glutamine, biotin, hygromycin and blasticidin with 1 μg/mL tetracycline (Invitrogen, Carlsbad, Calif.). The conditioned medium containing ACC2 was then applied to a Softlink Soft Release Avidin column (Promega, Madison, Wis.) and eluted with 5 mM biotin. 4 mgs of ACC2 were eluted at a concentration of 0.05 mg/mL (determined by A280) with an estimated purity of 95% ([…]). The purified ACC2 was dialyzed in 50 mM Tris, 200 mM NaCl, 4 mM DTT, 2 mM EDTA, and 5% glycerol. The pooled protein was frozen and stored at −80° C., with no loss of activity upon thawing. For measurement of ACC2 activity and assessment of ACC2 inhibition, test compounds were dissolved in DMSO and added to the rhACC2 enzyme as a 5× stock with a final DMSO concentration of 1%.
[4] Measurement of human ACC2 inhibition. hACC2 was assayed in a Costar #3676 (Costar, Cambridge, Mass.) 384-well plate using the Transcreener ADP detection FP assay kit (Bellbrook Labs, Madison, Wis.) using the manufacturer's recommended conditions for a 50 uM ATP reaction. The final conditions for the assay were 50 mM HEPES, pH 7.2, 5 mM MgCl2, 5 mM tripotassium citrate, 2 mM DTT, 0.1 mg/mL BSA, 30 μM acetyl-CoA, 50 μM ATP, and 8 mM KHCO3. Typically, a 10 μl reaction was run for 50 min at 25° C., and 10 μl of Transcreener stop and detect buffer was added and the combination incubated at room temp for an additional 1 hour. The data was acquired on an Envision Fluorescence reader (Perkinelmer) using a 620 excitation Cy5 FP general dual mirror, 620 excitation Cy5 FP filter, 688 emission (S) and a 688 (P) emission filter.
The results using the recombinant hACC1 and recombinant hACC2 Transcreener assays described above are summarized in the table below for the Compounds of Formula (I) exemplified in the Examples above. All of the examples in both assays were run with a minimum of n=3.

For experiment [2], the target named is T2, recombinant human ACC1 (rhACC1) (Homo sapiens, UniProt Q13085, DEL44-44).
T2 construct: infected with recombinant baculovirus containing full length human ACC1 cDNA; made in house; host or cells: SF9 insect cells (baculovirus)
The experiment is described as follows: recombinant hACC1 Transcreener assay (ADP detection FP). It counts as biochemical. Conditions: recombinant hACC1 Transcreener assay, 50 μM ATP, minimum of n=3; read-out: hACC1. The procedure:
For example direct inhibition of ACC activity, for the compound of Formula (1) was determined using preparations of recombinant human ACC1 (rhACC1) and recombinant human ACC2 (rhACC2).
[1] Preparation of rhACC1. Two liters of SF9 cells, infected with recombinant baculovirus containing full length human ACC1 cDNA, were suspended in ice-cold lysis buffer (25 mM Tris, pH 7.5; 150 mM NaCl; 10% glycerol; 5 mM imidazole (EMD Bioscience; Gibbstown, N.J.); 2 mM TCEP (BioVectra; Charlottetown, Canada); Benzonase nuclease (10000 U/100 g cell paste; Novagen; Madison, Wis.); EDTA-free protease inhibitor cocktail (1 tab/50 mL; Roche Diagnostics; Mannheim, Germany). Cells were lysed by 3 cycles of freeze-thaw and centrifuged at 40,000×g for 40 minutes (4° C.). Supernatant was directly loaded onto a HisTrap FF crude column (GE Healthcare; Piscataway, N.J.) and eluted with an imidazole gradient up to 0.5 M over 20 column volumes (CV). ACC1-containing fractions were pooled and diluted 1:5 with 25 mM Tris, pH 7.5, 2 mM TCEP, 10% glycerol and direct loaded onto a CaptoQ (GE Healthcare) column and eluted with an NaCl gradient up to 1 M over 20 CV's. Phosphate groups were removed from purified ACC1 by incubation with lambda phosphatase (100 U/10 μM target protein; New England Biolabs; Beverly, Mass.) for 14 hours at 4° C.; okadaic acid was added (1 μM final concentration; Roche Diagnostics) to inhibit the phosphatase. Purified ACC1 was exchanged into 25 mM Tris, pH 7.5, 2 mM TCEP, 10% glycerol, 0.5 M NaCl by 6 hour dialysis at 4° C. Aliquots were prepared and frozen at −80° C.
[2] […] The final conditions for the assay were 50 mM HEPES, pH 7.2, 10 mM MgCl2, 7.5 mM tripotassium citrate, 2 mM DTT, 0.1 mg/mL BSA, 30 μM acetyl-CoA, 50 μM ATP, and 10 mM KHCO3. Typically, a 10 μl reaction was run for 120 min at 25° C., and 10 μl of Transcreener stop and detect buffer was added and the combination incubated at room temp for an additional 1 hour.
All of the examples in both assays were run with a minimum of n=3.

T1 sequence (O00763 whole entry V2141I): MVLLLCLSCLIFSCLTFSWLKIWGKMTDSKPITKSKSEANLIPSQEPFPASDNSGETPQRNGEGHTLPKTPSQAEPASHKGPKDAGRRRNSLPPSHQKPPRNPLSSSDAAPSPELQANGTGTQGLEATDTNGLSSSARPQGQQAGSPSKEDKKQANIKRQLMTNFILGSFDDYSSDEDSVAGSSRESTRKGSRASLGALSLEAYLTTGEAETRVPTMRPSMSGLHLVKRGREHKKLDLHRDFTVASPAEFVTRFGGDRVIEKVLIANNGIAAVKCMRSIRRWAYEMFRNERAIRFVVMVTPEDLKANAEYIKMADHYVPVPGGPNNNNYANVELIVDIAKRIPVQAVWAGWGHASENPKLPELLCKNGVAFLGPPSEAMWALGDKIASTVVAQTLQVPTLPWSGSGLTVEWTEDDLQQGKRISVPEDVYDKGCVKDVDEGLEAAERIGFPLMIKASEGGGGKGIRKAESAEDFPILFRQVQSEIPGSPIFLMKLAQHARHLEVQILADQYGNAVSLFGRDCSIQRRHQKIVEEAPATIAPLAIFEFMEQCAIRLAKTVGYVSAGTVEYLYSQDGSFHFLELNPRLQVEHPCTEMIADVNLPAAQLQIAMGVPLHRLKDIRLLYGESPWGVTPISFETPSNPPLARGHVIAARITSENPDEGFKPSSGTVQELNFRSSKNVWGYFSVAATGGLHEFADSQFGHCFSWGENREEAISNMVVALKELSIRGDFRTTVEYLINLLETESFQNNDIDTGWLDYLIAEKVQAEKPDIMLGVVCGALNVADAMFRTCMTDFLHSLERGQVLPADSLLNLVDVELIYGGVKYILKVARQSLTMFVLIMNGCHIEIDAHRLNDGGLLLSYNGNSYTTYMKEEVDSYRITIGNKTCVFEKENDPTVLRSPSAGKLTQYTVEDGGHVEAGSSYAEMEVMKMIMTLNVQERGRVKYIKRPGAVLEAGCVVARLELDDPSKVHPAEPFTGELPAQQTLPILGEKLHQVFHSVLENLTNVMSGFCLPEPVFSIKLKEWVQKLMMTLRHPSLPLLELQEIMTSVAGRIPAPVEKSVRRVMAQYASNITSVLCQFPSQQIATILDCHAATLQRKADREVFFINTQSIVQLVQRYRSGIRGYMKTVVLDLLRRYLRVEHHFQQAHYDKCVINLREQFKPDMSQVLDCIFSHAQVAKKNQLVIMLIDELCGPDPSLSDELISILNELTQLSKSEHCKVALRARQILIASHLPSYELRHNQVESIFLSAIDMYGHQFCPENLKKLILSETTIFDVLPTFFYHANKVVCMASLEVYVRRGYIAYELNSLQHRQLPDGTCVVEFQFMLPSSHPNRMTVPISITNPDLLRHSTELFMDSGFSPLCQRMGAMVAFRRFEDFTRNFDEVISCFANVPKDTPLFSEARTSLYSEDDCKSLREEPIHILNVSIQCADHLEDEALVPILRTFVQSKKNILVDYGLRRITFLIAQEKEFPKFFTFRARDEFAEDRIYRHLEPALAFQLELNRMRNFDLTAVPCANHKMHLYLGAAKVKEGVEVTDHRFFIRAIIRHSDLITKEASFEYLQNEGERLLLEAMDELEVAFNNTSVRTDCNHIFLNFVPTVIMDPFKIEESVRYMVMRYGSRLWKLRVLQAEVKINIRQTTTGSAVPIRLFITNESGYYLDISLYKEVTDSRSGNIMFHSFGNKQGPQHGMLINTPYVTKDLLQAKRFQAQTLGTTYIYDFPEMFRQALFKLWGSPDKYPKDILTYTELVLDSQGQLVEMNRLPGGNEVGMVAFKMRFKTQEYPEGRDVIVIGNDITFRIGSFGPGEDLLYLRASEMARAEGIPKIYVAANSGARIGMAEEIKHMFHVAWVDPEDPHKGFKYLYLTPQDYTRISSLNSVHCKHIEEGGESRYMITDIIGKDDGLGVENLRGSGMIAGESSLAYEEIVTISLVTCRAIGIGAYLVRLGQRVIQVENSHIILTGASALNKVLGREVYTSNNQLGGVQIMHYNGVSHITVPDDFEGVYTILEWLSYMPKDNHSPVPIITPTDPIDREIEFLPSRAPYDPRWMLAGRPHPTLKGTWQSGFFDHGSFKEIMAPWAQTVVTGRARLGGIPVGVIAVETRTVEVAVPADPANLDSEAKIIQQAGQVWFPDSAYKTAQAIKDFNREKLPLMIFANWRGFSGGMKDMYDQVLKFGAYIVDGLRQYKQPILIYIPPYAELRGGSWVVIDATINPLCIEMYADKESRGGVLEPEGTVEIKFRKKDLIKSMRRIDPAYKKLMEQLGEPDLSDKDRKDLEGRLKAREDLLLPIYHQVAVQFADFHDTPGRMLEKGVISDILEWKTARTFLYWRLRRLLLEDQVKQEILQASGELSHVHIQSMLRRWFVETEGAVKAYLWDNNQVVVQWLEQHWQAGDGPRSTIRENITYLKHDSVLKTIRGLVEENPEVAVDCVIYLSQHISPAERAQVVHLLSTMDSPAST

For `CC(C)n1ncc2c1C(=O)CC1(CCN(C(=O)c3cc4ccc(-c5cccc(C(=O)O)c5)cc4[nH]3)CC1)C2` [Example 41, 3-{2-[(1-isopropyl-7-oxo-1,4,6,7-tetrahydro-1′H-spiro[indazole-5,4′-piperidin]-1′-yl)carbonyl]-1H-indol-6-yl}benzoic acid], the values for the pIC50 in experiment [1] and in experiment [2] were 7.82 and 8.07, respectively.
Take `CC(C)n1ncc2c1C(=O)CC1(CCN(C(=O)c3ccc(-c4cccc(-c5nnn[nH]5)c4)cc3)CC1)C2` [Example 48, 1-isopropyl-1′-{[3′-(1H-tetrazol-5-yl)biphenyl-4-yl]carbonyl}-1,4-dihydrospiro[indazole-5,4′-piperidin]-7(6H)-one]: the results for the pIC50 in experiment [1] and in experiment [2] were 7.55 and 7.23, respectively.
The corresponding values for `COc1cc(C(=O)N2CCC3(CC2)CC(=O)c2c(cnn2C(C)(C)C)C3)cc(-c2cccc(C(=O)O)c2)n1` [Example 11, 3-{4-[(1-tert-butyl-7-oxo-1,4,6,7-tetrahydro-1′H-spiro[indazole-5,4′-piperidin]-1′-yl)carbonyl]-6-methoxypyridin-2-yl}benzoic acid] are 6.57 and 6.74.
“4-{6-(ethylamino)-5-[(1-isopropyl-7-oxo-1,4,6,7-tetrahydro-1′H-spiro[indazole-5,4′-piperidin]-1′-yl)carbonyl]pyridin-2-yl}benzoic acid [Example 14]”: the results for the pIC50 in experiment [1] and in experiment [2] were 7.12 and 6.86, respectively.
For the compound “3-{5-[(1-isopropyl-7-oxo-1,4,6,7-tetrahydro-1′H-spiro[indazole-5,4′-piperidin]-1′-yl)carbonyl]-6-(methylamino)pyridin-2-yl}benzoic acid [Example 5]”, the pIC50 was 6.94 in experiment [1] and 6.79 in experiment [2].
The corresponding values for `CC(C)(C)n1ncc2c1C(=O)CC1(CCN(C(=O)c3ccc(-c4cccc(C(=O)O)c4)cc3)CC1)C2` [Example 6, 4′-[(1-tert-butyl-7-oxo-1,4,6,7-tetrahydro-1′H-spiro[indazole-5,4′-piperidin]-1′-yl)carbonyl]biphenyl-3-carboxylicacid] are 6.94 and 6.59.
Take `CC(C)n1ncc2c1C(=O)CC1(CCN(C(=O)c3cc(C(=O)O)cc(-c4ncco4)c3)CC1)C2` [Example 22, 3-[(1-isopropyl-7-oxo-1,4,6,7-tetrahydro-1′H-spiro[indazole-5,4′-piperidin]-1′-yl)carbonyl]-5-(1,3-oxazol-2-yl)benzoic acid]: the pIC50 in experiment [1] was 6.16; in experiment [2] it was 6.00.
For the compound `CC(C)n1ncc2c1C(=O)CC1(CCN(C(=O)c3cc(-c4cccc(C(=O)O)c4)c4cc[nH]c4c3)CC1)C2` [Example 39, 3-{6-[(1-isopropyl-7-oxo-1,4,6,7-tetrahydro-1′H-spiro[indazole-5,4′-piperidin]-1′-yl)carbonyl]-1H-indol-4-yl}benzoic acid], the figures for the pIC50 in experiment [1] and in experiment [2] were 7.53 and 7.54, respectively.
The corresponding values for “4-{5-[(1-tert-butyl-7-oxo-1,4,6,7-tetrahydro-1′H-spiro[indazole-5,4′-piperidin]-1′-yl)carbonyl]-6-(methylamino)pyridin-2-yl}benzoic acid [Example 12]” are 7.02 and 6.82.
For `CC(C)n1ncc2c1C(=O)CC1(CCN(C(=O)c3cc4c(-c5cccc(C(=O)O)c5)nccc4[nH]3)CC1)C2` [Example 35, 3-{2-[(1-isopropyl-7-oxo-1,4,6,7-tetrahydro-1′H-spiro[indazole-5,4′-piperidin]-1′-yl)carbonyl]-1H-pyrrolo[3,2-c]pyridin-4-yl}benzoic acid] the same measures were 7.90 and 7.49.
For `COc1cc(C(=O)N2CCC3(CC2)CC(=O)c2c(cnn2C(C)(C)C)C3)cc(-c2ccc(C(=O)O)cc2)n1` [Example 10, 4-{4-[(1-tert-butyl-7-oxo-1,4,6,7-tetrahydro-1′H-spiro[indazole-5,4′-piperidin]-1′-yl)carbonyl]-6-methoxypyridin-2-yl}benzoic acid] the same measures were 7.45 and 7.52.
Take `CC(C)n1ncc2c1C(=O)CC1(CCN(C(=O)c3cc(-c4ccc(C(=O)O)cc4)c4cn[nH]c4c3)CC1)C2` [Example 26, 4-{6-[(1-isopropyl-7-oxo-1,4,6,7-tetrahydro-1′H-spiro[indazole-5,4′-piperidin]-1′-yl)carbonyl]-1H-indazol-4-yl}benzoic acid]: the pIC50 in experiment [1] is 8.13; in experiment [2] it was 7.69.
The corresponding values for `COc1cc(C(=O)N2CCC3(CC2)CC(=O)c2c(cnn2C(C)C)C3)cc(-c2cccc(C(=O)O)c2)n1` [Example 2, 3-(4-(1-Isopropyl-7-oxo-1,4,6,7-tetrahydrospiro[indazole-5,4′-piperidine]-1′-ylcarbonyl)-6-methoxypyridin-2-yl)benzoic acid] are 7.08 and 7.22.
For `CC(C)(C)n1ncc2c1C(=O)CC1(CCN(C(=O)c3cc(C(=O)O)cc(-c4ncco4)c3)CC1)C2` [Example 21, 3-[(1-tert-butyl-7-oxo-1,4,6,7-tetrahydro-1′H-spiro[indazole-5,4′-piperidin]-1′-yl)carbonyl]-5-(1,3-oxazol-2-yl)benzoic acid] the same measures were 6.29 and 6.20.
For `CC(C)Nc1nc(-c2cccc(C(=O)O)c2)ccc1C(=O)N1CCC2(CC1)CC(=O)c1c(cnn1C(C)C)C2` [Example 23, 3-{6-(isopropylamino)-5-[(1-isopropyl-7-oxo-1,4,6,7-tetrahydro-1′H-spiro[indazole-5,4′-piperidin]-1′-yl)carbonyl]pyridin-2-yl}benzoic acid] the same measures were 6.38 and 5.86.
On to `CNc1ncc(-c2cccc(C(=O)O)c2)cc1C(=O)N1CCC2(CC1)CC(=O)c1c(cnn1C(C)C)C2` [Example 43, 3-{5-[(1-isopropyl-7-oxo-1,4,6,7-tetrahydro-1′H-spiro[indazole-5,4′-piperidin]-1′-yl)carbonyl]-6-(methylamino)pyridin-3-yl}benzoic acid], for which the pIC50 in experiment [1] is 6.88; in experiment [2] it was 7.01.

These data come from patent US11673890B2, “N1-pyrazolospiroketone acetyl-CoA carboxylase inhibitors” (Pfizer Inc., priority 2010, dated 2023).
